Experimental data as given in patent US11919887B2, “Substituted tetrahydrofurans as modulators of sodium channels” (Vertex Pharmaceuticals Incorporated, priority 2019, dated 2024).
Where two headings read alike, the source gives them in different places.

Biological target: human Nav 1.8 (Homo sapiens, UniProt Q9Y5Y9)
Experiment: E-VIPR assay detecting and measuring Nav inhibition (HEK cells expressing truncated human Nav 1.8)
Format: cell-based
Text: Sodium ion channels are voltage-dependent proteins that can be activated by inducing membrane voltage changes by applying electric fields. The electrical stimulation instrument and methods of use, referred to as E-VIPR, are described in International Publication No. WO 2002/008748 A3 and C.-J. Huang et al. Characterization of voltage-gated sodium channel blockers by electrical stimulation and fluorescence detection of membrane potential, 24 Nature Biotech. 439-46 (2006), both of which are incorporated by reference in their entirety. The instrument comprises a microtiter plate handler, an optical system for exciting the coumarin dye while simultaneously recording the coumarin and oxonol emissions, a waveform generator, a current- or voltage-controlled amplifier, and parallel electrode pairs that are inserted into assay plate wells. Under integrated computer control, this instrument passes user-programmed electrical stimulus protocols to cells within the wells of the microtiter plate.
16-20 hours prior to running the assay on E-VIPR, HEK cells expressing a truncated form of human Nav 1.8 with full channel activity were seeded into microtiter 384-well plates, pre-coated with matrigel, at a density of 25,000 cells per well. 2.5-5% KIR2.1 Bacmam virus was added to the final cell suspension before seeding into cell plates. HEK cells were grown in Dulbecco's Modified Eagle's Medium (DMEM) supplemented with 10% FBS (Fetal Bovine Serum, qualified; Sigma #F4135), 1% NEAA (Non-Essential Amino Acids, Gibco #11140), 1% HEPES (Gibco #15630), 1% Pen-Strep (Penicillin-Streptomycin; Gibco #15140) and 5 μg/ml Blasticidin (Gibco #R210-01). Cells were expanded in vented cap cell culture flasks, with 90-95% humidity and 5% CO2.
Human Serum (HS, Millipore #S1P1-01KL, or Sigma SLBR5469V and SLBR5470V as a 50%/50% mixture, for 25% assay final concentration)
Bath1 Buffer: • Sodium Chloride 160 mM (9.35 g/L), Potassium Chloride, 4.5 mM (0.335 g/L), Glucose 10 mM (1.8 g/L), Magnesium Chloride (Anhydrous) 1 mM (0.095 g/L), Calcium Chloride 2 mM (0.222 g/L), HEPES 10 mM (2.38 g/L) in water.
Na/TMA Cl Bath1 Buffer: • Sodium Chloride 96 mM (5.61 g/L), Potassium Chloride 4.5 mM (0.335 g/L), Tetramethylammonium (TMA)-Cl 64 mM (7.01 g/L), Glucose 10 mM (1.8 g/L), Magnesium Chloride (Anhydrous) 1 mM (0.095 g/L), Calcium Chloride 2 mM (0.222 g/L) HEPES 10 mM (2.38 g/L) in water.
Hexyl Dye Solution (2× concentration): • Bath1 Buffer containing 0.5% β-cyclodextrin (made fresh prior to each use, Sigma #C4767), 8 μM CC2-DMPE and 2 μM DiSBAC6(3). The solution was made by adding 10% Pluronic F127 stock equal to combined volumes of CC2-DMPE and DiSBAC6(3). The order of preparation was first mix Pluronic and CC2-DMPE, then add DiSBAC6(3), then while vortexing add Bath1/β-Cyclodextrin.
Compound Loading Buffer (2×concentration): Na/TMA Cl Bath1 Buffer containing HS (omitted in experiments run in the absence of human serum (HS)) 50%, VABSC-1 1 mM, BSA 0.2 mg/ml (in Bath-1), KCl 9 mM, DMSO 0.75%.
Assay Protocol (7 Key Steps): • 1) To reach the final concentration in each well, 400 nL of each compound was pre-spotted (in neat DMSO) into polypropylene compound plates at 250×desired final concentration from an intermediate stock concentration of 0.075 mM, in an 11 point dose response, 3-fold dilution, resulting in a top dose of 300 nM final concentration in the cell plate. Vehicle control (neat DMSO), and positive control (an established Nav1.8 inhibitor, 25 μM final in assay in DMSO) were added manually to the outermost columns of each plate respectively. The compound plate was backfilled with 45 μL per well of Compound Loading Buffer resulting in a 250 fold dilution of compound following a 1:1 transfer of compound into the cell plate (see Step 6). Final DMSO concentration for all wells in the assay was 0.625% (0.75% DMSO was supplemented to the Compound Loading Buffer for a final DMSO concentration of 0.625%). […]

[1] = in the Presence of Human Serum in the E-VIPR Assay
[2] = in the Presence of Human Serum in the E-VIPR Assay, read-out: IC50

human Nav 1.8, sequence (Q9Y5Y9 whole entry, looked up, the tested form may be a part): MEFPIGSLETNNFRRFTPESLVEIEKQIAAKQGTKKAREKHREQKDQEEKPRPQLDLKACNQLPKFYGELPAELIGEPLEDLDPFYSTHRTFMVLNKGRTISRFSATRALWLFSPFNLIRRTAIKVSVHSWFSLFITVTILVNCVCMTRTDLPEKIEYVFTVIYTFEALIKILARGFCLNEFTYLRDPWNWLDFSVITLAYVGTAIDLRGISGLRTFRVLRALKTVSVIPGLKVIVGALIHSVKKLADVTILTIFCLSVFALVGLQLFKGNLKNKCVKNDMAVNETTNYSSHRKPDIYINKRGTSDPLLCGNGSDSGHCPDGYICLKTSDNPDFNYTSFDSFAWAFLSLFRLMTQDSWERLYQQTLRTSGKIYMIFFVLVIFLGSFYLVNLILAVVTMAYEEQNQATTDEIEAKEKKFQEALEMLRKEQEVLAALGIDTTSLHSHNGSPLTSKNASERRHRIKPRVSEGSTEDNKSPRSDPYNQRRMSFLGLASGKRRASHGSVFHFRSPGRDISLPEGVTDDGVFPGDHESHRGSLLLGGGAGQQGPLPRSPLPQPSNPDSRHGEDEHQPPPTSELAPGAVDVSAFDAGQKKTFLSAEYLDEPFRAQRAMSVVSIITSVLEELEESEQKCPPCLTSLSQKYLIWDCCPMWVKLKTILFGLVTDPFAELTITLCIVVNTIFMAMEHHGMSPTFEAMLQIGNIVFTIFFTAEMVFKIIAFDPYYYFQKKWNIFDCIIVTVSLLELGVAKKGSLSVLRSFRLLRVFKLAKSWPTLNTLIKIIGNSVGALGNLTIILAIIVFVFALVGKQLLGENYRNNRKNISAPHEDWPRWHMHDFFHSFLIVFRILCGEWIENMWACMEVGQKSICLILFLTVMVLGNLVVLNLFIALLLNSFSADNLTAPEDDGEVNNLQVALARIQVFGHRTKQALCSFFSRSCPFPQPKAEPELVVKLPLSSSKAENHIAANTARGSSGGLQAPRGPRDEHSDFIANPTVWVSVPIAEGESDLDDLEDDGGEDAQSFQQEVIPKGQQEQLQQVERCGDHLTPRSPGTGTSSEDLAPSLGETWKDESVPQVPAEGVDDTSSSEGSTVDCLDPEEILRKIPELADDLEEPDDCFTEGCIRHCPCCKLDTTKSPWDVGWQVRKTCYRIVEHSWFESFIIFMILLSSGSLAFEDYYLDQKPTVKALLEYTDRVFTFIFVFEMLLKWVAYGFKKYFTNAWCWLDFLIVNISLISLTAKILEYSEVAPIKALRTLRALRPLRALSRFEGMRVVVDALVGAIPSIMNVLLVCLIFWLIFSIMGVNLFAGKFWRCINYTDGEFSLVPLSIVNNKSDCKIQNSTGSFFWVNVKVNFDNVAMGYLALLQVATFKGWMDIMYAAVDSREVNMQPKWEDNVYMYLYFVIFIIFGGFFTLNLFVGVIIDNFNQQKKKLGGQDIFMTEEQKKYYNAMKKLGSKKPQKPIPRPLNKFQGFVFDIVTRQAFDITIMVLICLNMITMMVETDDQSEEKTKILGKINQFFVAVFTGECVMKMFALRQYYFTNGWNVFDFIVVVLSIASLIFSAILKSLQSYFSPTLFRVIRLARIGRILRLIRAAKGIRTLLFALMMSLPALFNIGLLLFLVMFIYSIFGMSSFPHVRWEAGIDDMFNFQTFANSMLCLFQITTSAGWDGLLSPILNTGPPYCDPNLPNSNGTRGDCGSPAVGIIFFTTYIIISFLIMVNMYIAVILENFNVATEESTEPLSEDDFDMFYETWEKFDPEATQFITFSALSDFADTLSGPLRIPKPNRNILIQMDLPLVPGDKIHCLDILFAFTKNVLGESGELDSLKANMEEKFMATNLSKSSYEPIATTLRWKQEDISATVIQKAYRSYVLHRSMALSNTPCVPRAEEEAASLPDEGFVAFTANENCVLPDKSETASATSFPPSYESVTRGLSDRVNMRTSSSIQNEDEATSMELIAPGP

Compound	IC50 [2] [nM]	other results
COc1c([C@@H]2[C@@H](C(=O)Nc3ccnc(C(N)=O)c3)O[C@@](C)(C(F)(F)F)[C@@H]2C)ccc(F)c1F (racemic) [Compound 33, rac-(2S,3R,4R,5R)-4-[[3-(3,4-difluoro-2-methoxy-phenyl)-4,5-dimethyl-5-(trifluoromethyl)tetrahydrofuran-2-carbonyl]amino]pyridine-2-carboxamide]		IC50 [1]: 100 to 1000 nM
COc1c([C@@H]2[C@@H](C(=O)Nc3ccnc(C(N)=O)c3)O[C@@](C)(C(F)(F)F)[C@H]2C)ccc(F)c1F (racemic) [Compound 34, rac-(2S,3R,4S,5R)-4-[[3-(3,4-difluoro-2-methoxy-phenyl)-4,5-dimethyl-5-(trifluoromethyl)tetrahydrofuran-2-carbonyl]amino]pyridine-2-carboxamide]		IC50 [1]: > 1000 nM
COc1c([C@@H]2[C@@H](C)[C@](C)(C(F)(F)F)O[C@H]2C(=O)Nc2ccnc(C(N)=O)c2)ccc(F)c1F (racemic) [Compound 35, rac-(2R,3S,4R,5R)-4-[[3-(3,4-difluoro-2-methoxy-phenyl)-4,5-dimethyl-5-(trifluoromethyl)tetrahydrofuran-2-carbonyl]amino]pyridine-2-carboxamide]		IC50 [1]: 100 to 1000 nM
COc1cccc(F)c1[C@@H]1C[C@](C)(C(F)(F)F)O[C@H]1C(=O)Nc1ccnc(C(N)=O)c1 (racemic) [Compound 79, rac-(2R,3S,5R)-4-[[3-(2-fluoro-6-methoxy-phenyl)-5-methyl-5-(trifluoromethyl)tetrahydrofuran-2-carbonyl]amino]pyridine-2-carboxamide]	> 1000	
COc1c([C@H]2[C@@H](C(=O)Nc3ccnc(C(N)=O)c3)OC(C)(C)[C@@H]2C)ccc(F)c1F (racemic) [Compound 100, rac-(2S,3S,4R)-4-[[3-(3,4-difluoro-2-methoxy-phenyl)-4,5,5-trimethyl-tetrahydrofuran-2-carbonyl]amino]pyridine-2-carboxamide]	> 1000	
C[C@H]1[C@@H](c2ccc(F)c(F)c2OC(F)F)[C@H](C(=O)Nc2ccnc(C(N)=O)c2)O[C@@]1(C)C(F)(F)F (racemic) [Compound 115, rac-(2R,3S,4S,5R)-4-[[3-[2-(difluoromethoxy)-3,4-difluoro-phenyl]-4,5-dimethyl-5-(trifluoromethyl)tetrahydrofuran-2-carbonyl]amino]pyridine-2-carboxamide]	< 10	
CC[C@H]1[C@@H](c2ccc(F)c(F)c2OC)[C@H](C(=O)Nc2ccnc(C(N)=O)c2)O[C@@]1(C)C(F)(F)F (racemic) [Compound 116, rac-(2R,3S,4S,5R)-4-[[3-(3,4-difluoro-2-methoxy-phenyl)-4-ethyl-5-methyl-5-(trifluoromethyl)tetrahydrofuran-2-carbonyl]amino]pyridine-2-carboxamide]	< 10	
C[C@@H]1[C@H](c2ccc(F)cc2OC(F)F)[C@@H](C(=O)Nc2ccnc(C(N)=O)c2)O[C@@]1(C)C(F)(F)F (racemic) [compound 28]	10 to 100	
COc1cc(C(F)(F)F)ncc1[C@H]1[C@H](C(=O)Nc2ccnc(C(N)=O)c2)O[C@@](C)(C(F)(F)F)[C@H]1C (racemic) [compound 139]		IC50 (in the Absence of Human Serum in the E-VIPR Assay, read-out: IC50): > 1000 nM
COc1c([C@H]2C[C@@](C)(C(F)(F)F)O[C@@H]2C(=O)Nc2ccnc(C(N)=O)c2)ccc(F)c1Cl (relative stereo) [Compound 20, rel-(2S,3R,5S)-4-[[3-(3-chloro-4-fluoro-2-methoxy-phenyl)-5-methyl-5-(trifluoromethyl)tetrahydrofuran-2-carbonyl]amino]pyridine-2-carboxamide]	> 1000	
COc1c([C@H]2C[C@@](C)(C(F)(F)F)O[C@@H]2C(=O)Nc2ccnc(C(N)=O)c2)ccc(F)c1Cl (relative stereo) [Compound 22, rel-(2R,3S,5R)-4-[[3-(3-chloro-4-fluoro-2-methoxy-phenyl)-5-methyl-5-(trifluoromethyl)tetrahydrofuran-2-carbonyl]amino]pyridine-2-carboxamide]	10 to 100	
COc1c([C@@H]2[C@H](C)[C@H](C(F)(F)F)O[C@H]2C(=O)Nc2ccnc(C(N)=O)c2)ccc(F)c1F (relative stereo) [Compound 24, rel-(2R,3S,4S,5R)-4-[[3-(3,4-difluoro-2-methoxy-phenyl)-4-methyl-5-(trifluoromethyl)tetrahydrofuran-2-carbonyl]amino]pyridine-2-carboxamide]	> 1000	
COc1c([C@@H]2[C@H](C)[C@H](C(F)(F)F)O[C@H]2C(=O)Nc2ccnc(C(N)=O)c2)ccc(F)c1F (relative stereo) [Compound 25, rel-(2S,3R,4R,5S)-4-[[3-(3,4-difluoro-2-methoxy-phenyl)-4-methyl-5-(trifluoromethyl)tetrahydrofuran-2-carbonyl]amino]pyridine-2-carboxamide]	< 10	
COc1c([C@@H]2C[C@](C)(C(F)(F)F)O[C@H]2C(=O)Nc2cc[n+]([O-])c(C(N)=O)c2)ccc(F)c1F (relative stereo) [Compound 54, rel-(2R,3S,5R)-4-[[3-(3,4-difluoro-2-methoxy-phenyl)-5-methyl-5-(trifluoromethyl)tetrahydrofuran-2-carbonyl]amino]-1-oxido-pyridin-1-ium-2-carboxamide]	100 to 1000	
COc1cc(F)ccc1[C@@H]1C[C@](C)(C(F)(F)F)O[C@@H]1C(=O)Nc1ccnc(C(N)=O)c1 (relative stereo) [Compound 70, rel-(2S,3S,5R)-4-[[3-(4-fluoro-2-methoxy-phenyl)-5-methyl-5-(trifluoromethyl)tetrahydrofuran-2-carbonyl]amino]pyridine-2-carboxamide]	> 1000	
COc1cc(F)ccc1[C@H]1[C@H](C(=O)Nc2ccnc(C(N)=O)c2)O[C@@](C)(C(F)(F)F)[C@H]1C (single isomer, unassigned) [Compound 3a]	> 1000	
COc1cc(F)ccc1[C@@H]1[C@@H](C(=O)Nc2ccnc(C(N)=O)c2)O[C@](C)(C(F)(F)F)[C@@H]1C (single isomer, unassigned) [Compound 3b]	< 10	
C[C@H]1[C@@H](c2ccc(F)c(F)c2OC(F)F)[C@H](C(=O)Nc2ccc(F)c(C(N)=O)c2)O[C@@]1(C)C(F)(F)F (single isomer, unassigned) [Compound 14]	> 1000	
C[C@H]1[C@@H](c2ccc(F)c(F)c2OC(F)F)[C@H](C(=O)Nc2ccc(F)c(C(N)=O)c2)O[C@@]1(C)C(F)(F)F (single isomer, unassigned) [Compound 15]	< 10	
CNC(=O)c1cc(NC(=O)[C@H]2O[C@](C)(C(F)(F)F)[C@H](C)[C@@H]2c2ccc(F)cc2OC(F)F)ccn1 (single isomer, unassigned) [Compound 29]	> 1000	
CNC(=O)c1cc(NC(=O)[C@@H]2O[C@@](C)(C(F)(F)F)[C@@H](C)[C@H]2c2ccc(F)cc2OC(F)F)ccn1 (single isomer, unassigned) [Compound 30]	100 to 1000	
C[C@@H]1[C@H](c2ccc(F)cc2OC(F)F)[C@@H](C(=O)Nc2ccc(F)c(C(N)=O)c2)O[C@]1(C)C(F)(F)F (single isomer, unassigned) [Compound 31]	> 1000	
C[C@H]1[C@@H](c2ccc(F)cc2OC(F)F)[C@H](C(=O)Nc2ccc(F)c(C(N)=O)c2)O[C@@]1(C)C(F)(F)F (single isomer, unassigned) [Compound 32]	< 10	
